# Counter-ions that a name gives are not always drawn.
# Tests used:
# [1] = tested on: benzodiazepine site of GABAA; assay: Binding assay, benzodiazepine site of GABAA (binding assay 1: rat brain, (3H)-flunitrazepam; binding assay 2: bovine hippocampal membranes, [3H]-RY80); conditions: radioligand binding; for % Inhibition at 10 μM: 10 μM test compound; for % Inhibition at 0.1 μM: 0.1 μM test compound
# Procedure, shortened: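 Assay 1: rat whole-brain (minus cerebellum) membranes in Na–K phosphate pH 7.4, 1 nM (3H)-flunitrazepam, 60 min at 25° C., ± 30 μM GABA; nonspecific with 10 μM diazepam. Assay 2: bovine hippocampal membranes, 0.8 nM [3H]-RY80 in 50 mM Tris-Citrate pH 7.8/200 mM NaCl, 60 min at 0-4° C.; nonspecific with 0.5 μM L-655,708. Filtration read-out.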
# GABAA receptors = assay: Electrophysiology assay, two-electrode voltage clamp in Xenopus oocytes expressing GABAA receptors; format: cell-based; conditions: GABA EC10, screening concentration of 10 μM, subunit combination not stated
# Method: mRNA was prepared from lyophilized plasmid pellets containing cDNA inserts encoding the specific GABAA receptor subunit. cDNAs encoding the α2, α3, and γ3 subunits were subcloned into pBluescript, SK^−. cDNAs encoding the α1 and α5 subunits were subcloned into prC while cDNA encoding the β2 subunit was subcloned into pcDNA1. The cDNA construct encoding the γ2s subunit is in the pGH19 expression construct. Overnight cultures of transformed DH5a bacterial cells were performed to grow sufficient quantities for maxiprep isolation of the plasmid cDNA. The resulting plasmid cDNA was linearized by digestion with an appropriate restriction enzyme that cleaves distal to the cDNA insert (XbaI for α1,2, β2, and γ3 or NotI for α3,5 and γ2, respectively). Following digestion, plasmid cDNA was treated with proteinase K and extracted with phenol/chloroform/isoamyl alcohol, followed by ethanol precipitation. cDNA quality was assessed by agarose-gel electrophoresis (1.5% agarose gel). Samples were stored at −20° C. until use. In vitro transcription was performed with T7 RNA polymerase. mRNA was then stored at −80° C. until use. Plasmids were linearized with appropriate restriction enzymes before in vitro transcription using the Message Machine kit (Ambion, Austin, Tex.).
# GABAA Receptor Expression in Xenopus oocytes.
# GABAA receptor expression in Xenopus oocytes: Following 45 min of 0.15% Tricaine anesthesia, an ovarian section containing the follicular oocytes was removed from the frog through a lateral abdominal incision. Oocytes were immediately placed in a calcium-free solution (NaCl 96 mM, MgCl2 1 mM, KCl 2 mM, Hepes 50 mM, pyruvate 2.5 mM, gentamycin 100 μg/mL, penicillin-streptomycin 50 U/mL, pH 7.4). Following 1.5-2 hour incubation in 0.2% collagenase (type II, Sigma Chemical Co., St. Louis, Mo.) at room temperature, individual Dumont stage V and VI oocytes were transferred to an incubator and maintained overnight in Barth's solution (NaCl 84 mM, NaHCO3 2.4 mM, MgSO4 0.82 mM, KCl 1 mM, Ca(NO3)2 0.33 mM, CaCl2 0.41 mM, Tris/HCl 7.5 mM, pyruvate 2.5 mM, gentamycin 50 μg/mL, penicillin-streptomycin, 100 units/mL, pH 7.4) at 18-20° C. and used for experiments 1-5 days post-injection. Oocytes were injected solution using an electronic microinjector (Drummond, Broomall, Pa.) with 50 nL of RNA containing 0.3-0.5 ng of each subunit RNA in a 1:1:1 ratio. The injected oocytes were used for experiments after 1-5 days of incubation in Barth's solution at 18-20° C.
# Measurements of ion currents from oocytes expressing GABAA receptors were performed using a Warner two-electrode voltage-clamp amplifier (Warner Instruments, Inc., Foster City, Calif.) (Park-Chung, M., et al. (1999) Brain Res. 830: 72-87 incorporated herein in its entirety). Microelectrodes were fabricated from borosilicate glass capillaries with a programmed pipette puller (Sutter Instrument Co., Calif.). Microelectrode resistance was 1-3 MΩ when filled with 3 M KCl. The oocyte recording chamber was continuously perfused with Ringer solution. Oocytes were clamped at a holding potential of −70 mV during data acquisition. The membrane current was filtered at 10 Hz and sampled at 100 Hz. Compounds were applied by a gravity-driven external perfusion system. The working volume of the recording chamber was 30 μL and the rate of the perfusion was approximately 50 μL/sec. Compound application was 10-20 sec followed by a 90 sec wash. Data acquisition and external perfusion was computer controlled by custom-developed software. All experiments were performed at room temperature (22-24° C.). Dose-response data from each oocyte were fitted to the Hill equation by non-linear regression using the equation: IGABA=Emax/(1+(EC50/c)^n^H)
# Emax is the maximum response, EC50 is the concentration producing 50% of the maximal response, nH is the Hill coefficient and c is the concentration of agonist. […]
% Inhibition at 10 μM [1],% Inhibition at 0.1 μM [1],SMILES,EP Modulation (GABAA receptors)
A (A indicates % inhibition >80%),–,"CCNC(=O)n1ncc2c3nn(-c4cccc(Cl)c4)c(=O)c-3c[nH]c21 [Compound 6ad, 2-(3-chlorophenyl)-N-ethyl-3-oxo-2,3-dihydrodipyrazolo[3,4-b:3′,4′-d]pyridine-6(5H)-carboxamide]",E (E indicates negative modulation <20%)
A (A indicates % inhibition >80%),–,"CCNC(=O)n1ncc2c3nn(-c4ccsc4)c(=O)c-3c[nH]c21 [Compound 6u, N-ethyl-3-oxo-2-(thiophen-3-yl)-2,3-dihydrodipyrazolo[3,4-b:3′,4′-d]pyridine-6(5H)-carboxamide]",D (D indicates negative modulation >20%)
A (A indicates % inhibition >80%),–,"CCNC(=O)n1ncc2c3nn(-c4ccc(Br)cc4)c(=O)c-3c[nH]c21 [Compound 6w, 2-(4-bromophenyl)-N-ethyl-3-oxo-2,3-dihydrodipyrazolo[3,4-b:3′,4′-d]pyridine-6(5H)-carboxamide.TFA]",E (E indicates negative modulation <20%)
A (A indicates % inhibition >80%),–,"CCCNC(=O)n1ncc2c3nn(-c4ccccc4)c(=O)c-3c[nH]c21 [Compound 6d, 3-oxo-2-phenyl-N-propyl-2,3-dihydrodipyrazolo[3,4-b:3′,4′-d]pyridine-6(5H)-carboxamide]",E (E indicates negative modulation <20%)
C (C indicates % inhibition <20%),C (C indicates % inhibition <20%),"CC(C)N1CCN(C(=O)n2ncc3c4nn(-c5ccccc5)c(=O)c-4c[nH]c32)CC1 [Compound 7d, 6-(4-isopropylpiperazine-1-carbonyl)-2-phenyl-5,6-dihydrodipyrazolo[3,4-b:3′,4′-d]pyridin-3(2H)-one]",Positive
A (A indicates % inhibition >80%),C (C indicates % inhibition <20%),"O=C(NC1CC1)n1ncc2c3nn(-c4ccccc4)c(=O)c-3c[nH]c21 [Compound 6j, N-cyclopropyl-3-oxo-2-phenyl-2,3-dihydrodipyrazolo[3,4-b:3′,4′-d]pyridine-6(5H)-carboxamide]",E (E indicates negative modulation <20%)
A (A indicates % inhibition >80%),A (A indicates % inhibition >80%),"CCNC(=O)n1cc2[nH]cc3c(=O)n(-c4ccc(F)cc4)nc-3c2c1 [Compound 13f, N-Ethyl-2-(4-fluorophenyl)-3-oxo-2,3-dihydropyrazolo[3,4-d]pyrrolo[3,4-b]pyridine-7(5H)-carboxamide]",D (D indicates negative modulation >20%)
A (A indicates % inhibition >80%),A (A indicates % inhibition >80%),"CCCCNC(=O)n1cc2[nH]cc3c(=O)n(-c4ccccc4)nc-3c2c1 [Compound 13i, N-Butyl-3-oxo-2-phenyl-2,3-dihydropyrazolo[3,4-d]pyrrolo[3,4-b]pyridine-7(5H)-carboxamide]",E (E indicates negative modulation <20%)
A (A indicates % inhibition >80%),–,"CCNC(=O)n1ncc2c3nn(-c4ccc(Cl)cn4)c(=O)c-3c[nH]c21 [Compound 6ay, 2-(5-chloropyridin-2-yl)-N-ethyl-3-oxo-2,3-dihydrodipyrazolo[3,4-b:3′,4′-d]pyridine-6(5H)-carboxamide]",D (D indicates negative modulation >20%)
A (A indicates % inhibition >80%),–,"CCNC(=O)n1ncc2c3nn(-c4ccc(C(F)(F)F)cc4)c(=O)c-3c[nH]c21 [Compound 6ae, N-ethyl-3-oxo-2-(4-(trifluoromethyl)phenyl)-2,3-dihydrodipyrazolo[3,4-b:3′,4′-d]pyridine-6(5H)-carboxamide]",E (E indicates negative modulation <20%)

# From US9012470B2 (Dart NeuroScience (Cayman) Ltd., priority 2010, dated 2015)
